Source: US8420216B2, “Thermosetting resin composition” (Showa Denko K.K., priority 2007, dated 2013)
Where “and” joins values, the source holds several entries; their conditions need not be identical. Identical values can stand only once. Like-named read-outs stand apart in the source and are kept apart here.

Test: pKa of curing accelerator (dissociation constant of aqueous solution at 25° C.)
Type: physicochemical
Procedure: The “pKa value” referred to in the invention is a numerical value represented by the following formula when the dissociation constant of an aqueous solution at 25° C. is denoted by “Ka”. The dissociation constant Ka of the aqueous solution is determined by, for example, measuring a hydrogen ion concentration of the aqueous solution by a pH meter and calculating concentrations of a dissociated component and an undissociated component after dissolution by the use of the resulting hydrogen ion concentration and weighed values of the solvate and water before dissolution. pKa=−log10 Ka

[1] = aqueous solution at 25° C., values in text
[2] = aqueous solution, of the curing accelerator, Table 1, read-out: pKa

| Structure (SMILES) | pKa [1] | pKa (aqueous solution, aqueous solution at 25° C., values in text, read-out: pKa) | pKa [2] | pKa (of the curing accelerator, Table 1) | pKa (aqueous solution at 25° C., values in text, read-out: pKa) |
| --- | --- | --- | --- | --- | --- |
| Cc1ncc[nH]1 [2-methylimidazole] | 7.9 | 7.88 | 7.9 | – | – |
| C1CCC2=NCCCN2CC1 [DBU, 1,8-diazabicyclo[5.4.0]undecene-7] | 12.5 | – | – | 12.7 and 12.5 | – |
| Nc1nc(N)nc(N)n1 [melamine] | – | – | 5 | – | 5 |
